Measurements reported in patent US20160051560A1, “TREATMENTS INVOLVING ESLICARBAZEPINE OR ESLICARBAZEPINE ACETATE” (BIAL - PORTELA & Cª, S.A., priority 2013, published 2016).

Test system: patients with acute manic (including mixed) episode, bipolar I disorder
Assay: Study BIA-2093-204: 3-week double-blind, randomised, placebo-controlled, fixed multiple dose study in acute mania
Format: in vivo, human
Settings: for YMRS score absolute change from V2 (1 Day) to V7 (21 Days), Mean ± SD / YMRS score absolute change from V2 (1 Day) to V7 (21 Days), Median (range): ITT
Protocol: Two 3-week multicentre, double-blind, randomised, placebo-controlled studies in acute mania (study BIA-2093-203: dose titrated by response, eslicarbazepine acetate (ESL) 600-1800 mg or 800-2400 mg, once-daily; study BIA-2093-204: fixed doses of 600, 1200 and 1800 mg, once-daily) were followed by a recurrence prevention study consisting of a 2-week open-label period (900 mg, once-daily) continued by a double-blind, parallel-group, fixed dose (300, 900 and 1800 mg, once-daily) period for a minimum of 6 months. The primary endpoint was change in Young Mania Rating Scale (YMRS) in studies BIA-2093-203 and BIA-2093-204, and the proportion of no worsening patients in the Clinical Global Impressions-Bipolar Version (CGI-BP) in study BIA-2093-205.
Study BIA-2093-204 (EudraCT No 2005-002133-13) followed a multicentre, double-blind, randomised, parallel-group, placebo-controlled, fixed multiple dose design. This study was conducted at 25 study centres in Europe, South Africa and South America. Patients were randomised (1:1:1:1) to one of the following treatment groups: (1) ESL 1800 mg QD, (2) ESL 1200 mg QD, (3) ESL 600 mg QD, and (4) Placebo QD. The visit schedule in study BIA-2093-204 was similar to that of study BIA-2093-203. […] Patients also had the option of entering Study BIA-2093-205.
Studies BIA-2093-203 and BIA-2093-204 enrolled patients with ages ≧18 years, currently displaying an acute manic (including mixed) episode and with a documented diagnosis of bipolar I disorder according to the DSM-IV criteria (2). Eligible patients should have a Young Mania Rating Scale (YMRS) total score ≧20, with symptoms of the current manic episode starting within two weeks prior to randomization. Patients were excluded if they had history of schizophrenia or schizoaffective disorder, psychotic features or rapid cycling. Patients were also excluded if they were treated with carbamazepine, oxcarbazepine or a depot-neuroleptic. Previous treatment with ESL or history of unresponsiveness, intolerance or hypersensitivity to other dibenzazepine compounds (carbamazepine, oxcarbazepine or licarbazepine) also constituted criteria for exclusion. Patients with clinical relevant risk of harm to self or others and history of substance abuse were also excluded. Women were excluded if they were pregnant or breast-feeding, or if of childbearing potential they were unable to use double-barrier contraception.
The following validated instruments were used: YMRS (20), the Clinical Global Impressions-Bipolar Version (CGI-BP) scale (21) and the Montgomery-Åsberg Depression Rating Scale (MADRS) (22). The YMRS score is the sum of 11 scoring items, ranging from 0 to 60 points; higher scores indicate higher mania symptomatology (20). The CGI-BP scale measures severity and treatment-related improvement in mania, depression and overall illness categories. It comprises 3 scales: severity of illness (1—normal to 7—very severely ill, in which 3—mildly ill was used as cut-off value for statistical analysis), change from preceding phase and worst phase (1—very much improved to 7—very much worse, and 8—not applicable) (21). The MADRS score is calculated as the sum of the 10 scoring items, ranging from 0 to 60 points: higher scores indicate higher depression symptomatology (22).
The primary efficacy endpoint for acute mania studies (BIA-2093-203 and BIA-2093-204) was the change in YMRS total score from baseline until the end of the 3-week treatment period. Investigators administered the YMRS at each visit. Secondary efficacy variables based on the YMRS score included responder rate (proportion of patients with ≧50% improvement or <12 points in the YMRS score), change in YMRS total score for each visit, proportion of patients in full remission (YMRS score <12), and time to full remission. The investigators completed CGI-BP in all visits and the test scores in the different categories were considered as secondary endpoints. […]

[1] = ESL 1200 mg, n = 9, only study 204
[2] = ESL 1800 mg, n = 10, only study 204

## CC(=O)O[C@H]1Cc2ccccc2N(C(N)=O)c2ccccc21 [ESL, (S)-10-acetoxy-10,11-dihydro-5H-dibenz[b,f]azepine-5-carboxamide]
ESL 600 mg QD, n = 8
  YMRS score absolute change from V2 (1 Day) to V7 (21 Days), Mean ± SD: −16.9 ± 2.8
  YMRS score absolute change from V2 (1 Day) to V7 (21 Days), Median (range): −17.5 (−20.0, −12.0)
ESL 1200 mg QD, n = 9
  YMRS score absolute change from V2 (1 Day) to V7 (21 Days), Mean ± SD: −16.7 ± 9.1
  YMRS score absolute change from V2 (1 Day) to V7 (21 Days), Median (range): −15.0 (−35.0, −4.0)
[1]
  Any Adverse Events: 9 (100.0) Number (%) of patients
  Diarrhoea: 0 (0.0) Number (%) of patients
  Dizziness: 2 (22.2) Number (%) of patients
  Headache: 5 (55.6) Number (%) of patients
  Nausea: 1 (11.1) Number (%) of patients
  Paraesthesia oral: 1 (11.1) Number (%) of patients
  Somnolence: 1 (11.1) Number (%) of patients
  Vomiting: 2 (22.2) Number (%) of patients
ESL 1800 mg QD, n = 9
  YMRS score absolute change from V2 (1 Day) to V7 (21 Days), Mean ± SD: −11.3 ± 10.9
  YMRS score absolute change from V2 (1 Day) to V7 (21 Days), Median (range): −15.0 (−26.0, 7.0)
ESL 1800 mg group
  mean change in YMRS total scores from screening to V7: −11.3
  patients in full remission at the end of the 3-week treatment period: 33.3%
[2]
  Any Adverse Events: 10 (100.0) Number (%) of patients
  Diarrhoea: 0 (0.0) Number (%) of patients
  Dizziness: 4 (40.0) Number (%) of patients
  Headache: 1 (10.0) Number (%) of patients
  Nausea: 3 (30.0) Number (%) of patients
  Paraesthesia oral: 2 (20.0) Number (%) of patients
  Somnolence: 3 (30.0) Number (%) of patients
  Vomiting: 2 (20.0) Number (%) of patients
